US10485235B2, “Aryloxypyrimidinyl ethers as herbicides” (FMC Corporation, priority 2015, dated 2019)

Tests used:
Type in all cases: in vivo
kochia (Kochia scoparia) [1] = assay: Test A postemergence, kochia; conditions: for Plant response rating, Kochia: postemergence, 0 to 100 scale, 0 is no effect, 100 is complete control, approximately 10 days
Method in brief: (§1)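 Scores (0 no effect to 100 complete control) come from visual comparison of treated and untreated plants kept about 10 days in a greenhouse. Growth medium was a loam/sand blend; preemergence treatment was a directed soil spray, postemergence treatment went onto plants at the 1–2 leaf stage.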

[2] = tested on: sedge, umbrella (small-flower umbrella sedge, Cyperus difformis); assay: Test B flooded paddy test, umbrella sedge
Method in brief: (§2)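 Visual injury scored 0 (no effect) to 100 (complete control) relative to controls 13-15 days after treatment in greenhouse. Treatment: test compound added into paddy water of pots flooded 3 cm over soil, holding 2-leaf-stage plants; water level kept constant.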

[3] = tested on: foxtail, giant (giant foxtail, Setaria faberii); assay: Test A preemergence, giant foxtail; conditions: for Plant response rating, Foxtail, Giant: Preemergence, 0 to 100 scale (0 no effect, 100 complete control)
Method in brief: as §1

[4] = tested on: foxtail, giant (giant foxtail, Setaria faberii); assay: Test A postemergence, giant foxtail; conditions: for Plant response rating, Foxtail, Giant: postemergence, 0 to 100 scale, 0 is no effect, 100 is complete control, approximately 10 days
Method in brief: as §1

[5] = tested on: ducksalad (Heteranthera limosa); assay: Test B flooded paddy test, ducksalad
Method in brief: as §2

[6] = tested on: ragweed (common ragweed, Ambrosia elatior); assay: Test A postemergence, ragweed; conditions: for Plant response rating, Ragweed: postemergence, 0 to 100 scale, 0 is no effect, 100 is complete control, approximately 10 days
Method in brief: as §1

[7] = tested on: ryegrass, Italian (Italian ryegrass, Lolium multiflorum); assay: Test A preemergence, Italian ryegrass; conditions: for Plant response rating, Ryegrass, Italian: Preemergence, 0 to 100 scale (0 no effect, 100 complete control)
Method in brief: as §1

[8] = tested on: galium (catchweed bedstraw, Galium aparine); assay: Test A postemergence, galium; conditions: for Plant response rating, Galium: postemergence, 0 to 100 scale, 0 is no effect, 100 is complete control, approximately 10 days
Method in brief: as §1

[9] = tested on: pigweed (Amaranthus retroflexus); assay: Test A postemergence, pigweed; conditions: for Plant response rating, Pigweed: postemergence, 0 to 100 scale, 0 is no effect, 100 is complete control, approximately 10 days
Method in brief: as §1

[10] = tested on: barnyardgrass (Echinochloa crus-galli); assay: Test B flooded paddy test, barnyardgrass
Method in brief: as §2

[11] = tested on: barnyardgrass (Echinochloa crus-galli); assay: Test A preemergence, barnyardgrass; conditions: for Plant response rating, Barnyardgrass: Preemergence, 0 to 100 scale (0 no effect, 100 complete control)
Method in brief: as §1

[12] = tested on: ryegrass, Italian (Italian ryegrass, Lolium multiflorum); assay: Test A postemergence, Italian ryegrass; conditions: for Plant response rating, Ryegrass, Italian: postemergence, 0 to 100 scale, 0 is no effect, 100 is complete control, approximately 10 days
Method in brief: as §1

corn (Zea mays) = assay: Test A postemergence, corn; conditions: for Plant response rating, Corn: postemergence, 0 to 100 scale, 0 is no effect, 100 is complete control, approximately 10 days
Method in brief: as §1

[13] = tested on: barnyardgrass (Echinochloa crus-galli); assay: Test A postemergence, barnyardgrass; conditions: for Plant response rating, Barnyardgrass: postemergence, 0 to 100 scale, 0 is no effect, 100 is complete control, approximately 10 days
Method in brief: as §1

rice (Oryza sativa) = assay: Test B flooded paddy test, rice
Method in brief: as §2

[14] = tested on: wheat (Triticum aestivum); assay: Test A postemergence, wheat; conditions: for Plant response rating, Wheat: postemergence, 0 to 100 scale, 0 is no effect, 100 is complete control, approximately 10 days
Method in brief: as §1

[15] = tested on: pigweed (Amaranthus retroflexus); assay: Test A preemergence, pigweed; conditions: for Plant response rating, Pigweed: Preemergence, 0 to 100 scale (0 no effect, 100 complete control)
Method in brief: as §1

[16] = tested on: ragweed (common ragweed, Ambrosia elatior); assay: Test A preemergence, ragweed; conditions: for Plant response rating, Ragweed: Preemergence, 0 to 100 scale (0 no effect, 100 complete control)
Method in brief: as §1

kochia (Kochia scoparia) [17] = assay: Test A preemergence, kochia; conditions: for Plant response rating, Kochia: Preemergence, 0 to 100 scale (0 no effect, 100 complete control)
Method in brief: as §1

[18] = tested on: blackgrass (Alopecurus myosuroides); assay: Test A postemergence, blackgrass; conditions: for Plant response rating, Blackgrass: postemergence, 0 to 100 scale, 0 is no effect, 100 is complete control, approximately 10 days
Method in brief: as §1

[19] = Bassia scoparia, post-emergence, 240 h, read-out: Plant response rating, Kochia
[20] = Setaria faberi, pre-emergence, 240 h, read-out: Plant response rating, Foxtail, Giant
[21] = Setaria faberi, post-emergence, 240 h, read-out: Plant response rating, Foxtail, Giant
[22] = Ambrosia artemisiifolia, post-emergence, 240 h, read-out: Plant response rating, Ragweed
[23] = Lolium multiflorum, pre-emergence, 240 h, read-out: Plant response rating, Ryegrass, Italian
[24] = Galium, post-emergence, 240 h, read-out: Plant response rating, Galium
[25] = Amaranthus retroflexus, post-emergence, 240 h, read-out: Plant response rating, Pigweed
[26] = Echinochloa crus-galli, pre-emergence, 240 h, read-out: Plant response rating, Barnyardgrass
[27] = Lolium multiflorum, post-emergence, 240 h, read-out: Plant response rating, Ryegrass, Italian
[28] = Zea mays, post-emergence, 240 h, read-out: Plant response rating, Corn
[29] = Echinochloa crus-galli, post-emergence, 240 h, read-out: Plant response rating, Barnyardgrass
[30] = Triticum aestivum, post-emergence, 240 h, read-out: Plant response rating, Wheat
[31] = Amaranthus retroflexus, pre-emergence, 240 h, read-out: Plant response rating, Pigweed
[32] = Ambrosia artemisiifolia, pre-emergence, 240 h, read-out: Plant response rating, Ragweed
[33] = Bassia scoparia, pre-emergence, 240 h, read-out: Plant response rating, Kochia
[34] = Alopecurus myosuroides, post-emergence, 240 h, read-out: Plant response rating, Blackgrass
[35] = 250 g ai/ha, Flood, visual rating after 13 to 15 days, scale 0 to 100, 0 is no effect, 100 is complete control

FC(F)(F)C(F)(F)C(F)(F)COc1c(Br)cccc1Oc1ncc(Cl)cn1 [Compound 52, 2-[3-bromo-2-(2,2,3,3,4,4,4-heptafluorobutoxy)phenoxy]-5-chloropyrimidine]
pest or weed control at 125 g/ha (kochia (Kochia scoparia) [1]; [19]): 70% | pest or weed control at 500 g/ha (kochia (Kochia scoparia) [1]; [19]): 90% | pest or weed control at 250 g/ha ([2]; Cyperus difformis, read-out: Plant response rating, Sedge, Umbrella): 90% | pest or weed control at 125 g/ha [3, 20]: 80% | pest or weed control at 500 g/ha [3, 20]: 100% | pest or weed control at 125 g/ha [4, 21]: 20% | pest or weed control at 500 g/ha [4, 21]: 80% | pest or weed control at 250 g/ha ([5]; Heteranthera limosa, read-out: Plant response rating, Ducksalad): 75% | pest or weed control at 125 g/ha [6, 22]: 20% | pest or weed control at 500 g/ha [6, 22]: 30% | pest or weed control at 125 g/ha [7, 23]: 10% | pest or weed control at 500 g/ha [7, 23]: 50% | pest or weed control at 125 g/ha [8, 24]: 40% | pest or weed control at 500 g/ha [8, 24]: 90% | pest or weed control at 125 g/ha [9, 25]: 80% | pest or weed control at 500 g/ha [9, 25]: 100% | pest or weed control at 250 g/ha ([10]; Echinochloa crus-galli, read-out: Plant response rating, Barnyardgrass): 0% | pest or weed control at 125 g/ha [11, 26]: 30% | pest or weed control at 500 g/ha [11, 26]: 50% | pest or weed control at 125 g/ha [12, 27]: 20% | pest or weed control at 500 g/ha [12, 27]: 40% | plant injury at 125 g/ha (corn (Zea mays); [28]): 10% | plant injury at 500 g/ha (corn (Zea mays); [28]): 30% | pest or weed control at 125 g/ha [13, 29]: 10% | pest or weed control at 500 g/ha [13, 29]: 80% | plant injury at 250 g/ha (rice (Oryza sativa); Oryza sativa, read-out: Plant response rating, Rice): 15% | plant injury at 125 g/ha [14, 30]: 0% | plant injury at 500 g/ha [14, 30]: 20% | pest or weed control at 125 g/ha [15, 31]: 70% | pest or weed control at 500 g/ha [15, 31]: 100% | pest or weed control at 125 g/ha [16, 32]: 0% | pest or weed control at 500 g/ha [16, 32]: 0% | pest or weed control at 125 g/ha (kochia (Kochia scoparia) [17]; [33]): 0% | pest or weed control at 500 g/ha (kochia (Kochia scoparia) [17]; [33]): 40% | pest or weed control at 125 g/ha [18, 34]: 10% | pest or weed control at 500 g/ha [18, 34]: 20%

FC(F)C(F)(F)C(F)(F)C(F)(F)COc1c(Br)cccc1Oc1ncc(Cl)cn1 [Compound 53]
Plant response rating, Kochia (kochia (Kochia scoparia) [1]; 125 g ai/ha): 100 | Plant response rating, Kochia (kochia (Kochia scoparia) [1]; 500 g ai/ha): 100 | Plant response rating, Sedge, Umbrella [2, 35]: 80 | Plant response rating, Foxtail, Giant ([3]; 125 g ai/ha): 100 | Plant response rating, Foxtail, Giant ([3]; 500 g ai/ha): 100 | Plant response rating, Foxtail, Giant ([4]; 125 g ai/ha): 30 | Plant response rating, Foxtail, Giant ([4]; 500 g ai/ha): 100 | Plant response rating, Ducksalad [5, 35]: 90 | Plant response rating, Ragweed ([6]; 125 g ai/ha): 40 | Plant response rating, Ragweed ([6]; 500 g ai/ha): 80 | Plant response rating, Ryegrass, Italian ([7]; 125 g ai/ha): 20 | Plant response rating, Ryegrass, Italian ([7]; 500 g ai/ha): 80 | Plant response rating, Galium ([8]; 125 g ai/ha): 90 | Plant response rating, Galium ([8]; 500 g ai/ha): 100 | Plant response rating, Pigweed ([9]; 125 g ai/ha): 100 | Plant response rating, Pigweed ([9]; 500 g ai/ha): 100 | Plant response rating, Barnyardgrass [10, 35]: 0 | Plant response rating, Barnyardgrass ([11]; 125 g ai/ha): 60 | Plant response rating, Barnyardgrass ([11]; 500 g ai/ha): 100 | Plant response rating, Ryegrass, Italian ([12]; 125 g ai/ha): 20 | Plant response rating, Ryegrass, Italian ([12]; 500 g ai/ha): 70 | Plant response rating, Corn (corn (Zea mays); 125 g ai/ha): 10 | Plant response rating, Corn (corn (Zea mays); 500 g ai/ha): 30 | Plant response rating, Barnyardgrass ([13]; 125 g ai/ha): 40 | Plant response rating, Barnyardgrass ([13]; 500 g ai/ha): 100 | Plant response rating, Rice (rice (Oryza sativa); [35]): 15 | Plant response rating, Wheat ([14]; 125 g ai/ha): 10 | Plant response rating, Wheat ([14]; 500 g ai/ha): 30 | Plant response rating, Pigweed ([15]; 125 g ai/ha): 80 | Plant response rating, Pigweed ([15]; 500 g ai/ha): 100 | Plant response rating, Ragweed ([16]; 125 g ai/ha): 0 | Plant response rating, Ragweed ([16]; 500 g ai/ha): 20 | Plant response rating, Kochia (kochia (Kochia scoparia) [17]; 125 g ai/ha): 20 | Plant response rating, Kochia (kochia (Kochia scoparia) [17]; 500 g ai/ha): 90 | Plant response rating, Blackgrass ([18]; 125 g ai/ha): 30 | Plant response rating, Blackgrass ([18]; 500 g ai/ha): 60
